Measured values from patent US20180360801A1, “NEUROPROTECTIVE COMPOSITIONS AND THEIR USE” (priority 2017, published 2018).

Experiment: Blood glucose by glucometer after 4 weeks of treatment
Assay type: in vivo
Details: rats, streptozotocin 55 mg/kg ip, n=12, p<0.05
Protocol: In this study, we used streptozotocin (55 mg/kg) to induce hyperglycemia. We measured the levels of glucose using standardized glucometer after 4 weeks of treatment. Based on the literature, the current animal model represents severe hyperglycemia.

CN(N=O)C(=O)N[C@H]1C(O)O[C@H](CO)[C@@H](O)[C@@H]1O (mixture of isomers) [Streptozotocin, streptozotocin]
increase of levels of glucose as compared to the controls: 445.5%
